Experimental findings from article PMC13288994, “Identification and characterization of novel chikungunya virus polymerase inhibitors” (Journal of Virology, 2026) are described below.

Where two headings read alike, the source gives them in different places.

For one data set, the system named is SINV-GLuc. Put plainly: microbe, parasite or virus in culture. Type of data set: cell-based. The settings on record: VeroE6 cells, read-out: Antiviral potency (EC50 [µM]) SINV.
A short description of data set [1]: in vitro. As to conditions: African green monkey.
Data set [2] concerns CHIKV replicon. Put plainly: microbe, parasite or virus in culture. The settings on record: Chikungunya virus, U2OS, read-out: Antiviral potency (EC50 [µM]) CHKV replicon.
The next data set concerns HPIV3-nLuc. The experiment in a line: microbe, parasite or virus in culture. The settings on record: VeroE6 cells, read-out: Antiviral potency (EC50 [µM]) HPIV3. The format is cell-based.
A short description of data set [3]: in vitro. As to conditions: human.
The next data set concerns VSV-nLuc. The experiment in a line: microbe, parasite or virus in culture. The format is cell-based.
The subject of data set [4] is CHIKV-nLuc (181/25 strain). Put plainly: microbe, parasite or virus in culture. Type of data set: cell-based, Chikungunya virus. The settings on record: 384-well format, read 20 h after infection.
The subject of another data set is SARS-CoV-2-nLuc. The experiment in a line: microbe, parasite or virus in culture. As to conditions: VeroE6-TMPRSS2 cells, read-out: Antiviral potency (EC50 [µM]) SARS-CoV-2. Type of data set: cell-based.
A further data set relates to VEEV-TC83-nLuc. Put plainly: microbe, parasite or virus in culture. The format is cell-based.
A short description of data set [5]: in vitro. The settings on record: human. This is another data set of the same source.
Data set [6] concerns the target T1, SINV trans-replicase (P1234) (Sindbis virus, UniProt P03317).
T1 construct: expression of the P1234 polyprotein drives replication of a reporter RNA template; expressed in transfected cells; host or cells: U-2 OS
The experiment in a line: Trans-replicase assay, SINV. As to conditions: 100 µM, U-2 OS, 20 h. The format is cell-based. Here is the method:
(§1) U-2 OS cells were seeded at 75,000 cells per well in 24-well plates and cultured for 24 h. Cells were then co-transfected with 250 ng of plasmid encoding template RNA and 250 ng of plasmid encoding P1234 WT ([72], [73]), using Lipofectamine LTX with PLUS reagent (ThermoFisher Scientific) following the manufacturer’s instructions. After 4 h of post-transfection, medium containing 100 µM of compounds or DMSO was added to the cells. Cells were then incubated for 20 h, lysed, and GLuc activity was quantified using the Dual-Luciferase Reporter Assay System (Promega). Luciferase activities were normalized to those of the DMSO-treated controls.

Data set [7] deals with U-2 OS cells.
The subject of a further data set is SFV. The experiment in a line: microbe, parasite or virus in culture. Type of data set: cell-based, Semliki Forest virus. As to conditions: read-out: EC50 virus production, SFV.
The subject of data set [8] is U-2 OS cells. The experiment in a line: Cytotoxicity assay (PrestoBlue, 24 h) in U-2 OS cells. The format is cell-based, Human.
Data set [9] addresses EEEV trans-replicase (P1234) (Eastern equine encephalitis virus, UniProt Q306W6). Type of data set: cell-based.
Data set [10] has as its system CHIKV-nLuc. The experiment in a line: microbe, parasite or virus in culture. The format is cell-based, Chikungunya virus. As to conditions: MOI 0.1 FFU/cell, 24 hpi, in-house synthesized compound; read-out: EC50 CHIKV-nLuc, NHDF.
For data set [11], the target named is VEEV trans-replicase (P1234) (Venezuelan equine encephalitis virus, UniProt P36328). Type of data set: cell-based.
Data set [12] addresses T2, ONNV trans-replicase (P1234) (O'nyong-nyong virus, UniProt P13886).
T2 construct: expression of the P1234 polyprotein drives replication of a reporter RNA template; expressed in transfected cells; host or cells: U-2 OS
Put plainly: Trans-replicase assay, ONNV. The format is cell-based. As to conditions: 100 µM, U-2 OS, 20 h. Here is the method: as §1

For data set [13], the system named is CHIKV replicon. As to conditions: read-out: Antiviral potency (EC50 [µM]) CHKV replicon; replicon cells.
The test system of data set [14] is CHIKV-nLuc. Type of data set: cell-based, Chikungunya virus. As to conditions: 20 µM, U-2 OS, reporter read at 24 h.
Data set [15] concerns CHIKV-nLuc. The experiment in a line: microbe, parasite or virus in culture. Type of data set: cell-based, Chikungunya virus. As to conditions: MOI 0.1 FFU/cell, 24 hpi, in-house synthesized compound; read-out: EC50 CHIKV-nLuc, U-2 OS.
Another data set deals with RRV. The experiment in a line: microbe, parasite or virus in culture. Type of data set: cell-based, Ross River virus. The settings on record: read-out: EC50 virus production, RRV.
The test system of a further data set is NHDF cells. Put plainly: Cytotoxicity assay (PrestoBlue, 24 h) in NHDF cells. The format is cell-based, Human. As for the experimental part:
NHDF cells were seeded at 10,000 cells per well in 24-well plates and cultured for 24 h. Cells were then treated with threefold serial dilutions of compounds starting at 500 µM and incubated for 24 h. DMSO was included as a negative control for normalization. Following treatment, cells were incubated with PrestoBlue reagent (ThermoFisher Scientific) for 1 h at 37°C, and fluorescence was measured using a PerkinElmer Victor X5 multilabel plate reader. The CC50 values were determined by normalized non-linear regression with a variable slope model in Prism (GraphPad).

Data set [16] has as its target T3, CHIKV trans-replicase (P1234) (Chikungunya virus, UniProt Q8JUX6).
T3 construct: expression of the P1234 polyprotein drives replication of a reporter RNA template; expressed in transfected cells; host or cells: U-2 OS
The experiment in a line: Trans-replicase assay, CHIKV. The format is cell-based. The settings on record: 100 µM, U-2 OS, 20 h. As for the experimental part: as §1

A further data set concerns CHIKV 181/25. The experiment in a line: Virus yield dose-response in U-2 OS cells, CHIKV. Type of data set: cell-based, Chikungunya virus.
A further data set concerns MAYV. The experiment in a line: microbe, parasite or virus in culture. The format is cell-based, Mayaro virus. The settings on record: read-out: EC50 virus production, MAYV.
The test system of another data set is SINV. The experiment in a line: microbe, parasite or virus in culture. The format is cell-based, Sindbis virus. The settings on record: read-out: EC50 virus production, SINV.
Data set [17] concerns the target WEEV trans-replicase (P1234) (Western equine encephalitis virus, UniProt P13896). The format is cell-based.
For the next data set, the system named is RSV A2-L19F. The experiment in a line: microbe, parasite or virus in culture. The format is cell-based. As to conditions: Hep-2 cells; read-out: Antiviral potency (EC50 [µM]) RSV.
Data set [18] deals with T4, RRV trans-replicase (P1234) (Ross river virus, UniProt P13887).
T4 construct: expression of the P1234 polyprotein drives replication of a reporter RNA template; expressed in transfected cells; host or cells: U-2 OS
The experiment in a line: Trans-replicase assay, RRV. Type of data set: cell-based. The settings on record: 100 µM, U-2 OS, 20 h. As for the experimental part: as §1

Data set [19] deals with T5, BFV trans-replicase (P1234) (Barmah forest virus, UniProt P87515).
T5 construct: expression of the P1234 polyprotein drives replication of a reporter RNA template; expressed in transfected cells; host or cells: U-2 OS
Put plainly: Trans-replicase assay, BFV. Type of data set: cell-based. The settings on record: 100 µM, U-2 OS, 20 h. As for the experimental part:
as §1

Data set [20] relates to EILV trans-replicase (P1234). The experiment in a line: Trans-replicase assay, EILV. Type of data set: cell-based, Eilat virus. As to conditions: 100 µM, U-2 OS, 20 h. As for the experimental part: as §1
The test system of the next data set is ONNV. The experiment in a line: organism not typed. Type of data set: cell-based, o'nyong-nyong virus. As to conditions: read-out: EC50 virus production, ONNV.
Data set [21] has as its target T6, SFV trans-replicase (P1234) (Semliki forest virus, UniProt P08411).
T6 construct: expression of the P1234 polyprotein drives replication of a reporter RNA template; expressed in transfected cells; host or cells: U-2 OS
The experiment in a line: Trans-replicase assay, SFV. The format is cell-based. The settings on record: 100 µM, U-2 OS, 20 h. As for the experimental part: as §1

T4 sequence (P13887 1-2479 limits assumed): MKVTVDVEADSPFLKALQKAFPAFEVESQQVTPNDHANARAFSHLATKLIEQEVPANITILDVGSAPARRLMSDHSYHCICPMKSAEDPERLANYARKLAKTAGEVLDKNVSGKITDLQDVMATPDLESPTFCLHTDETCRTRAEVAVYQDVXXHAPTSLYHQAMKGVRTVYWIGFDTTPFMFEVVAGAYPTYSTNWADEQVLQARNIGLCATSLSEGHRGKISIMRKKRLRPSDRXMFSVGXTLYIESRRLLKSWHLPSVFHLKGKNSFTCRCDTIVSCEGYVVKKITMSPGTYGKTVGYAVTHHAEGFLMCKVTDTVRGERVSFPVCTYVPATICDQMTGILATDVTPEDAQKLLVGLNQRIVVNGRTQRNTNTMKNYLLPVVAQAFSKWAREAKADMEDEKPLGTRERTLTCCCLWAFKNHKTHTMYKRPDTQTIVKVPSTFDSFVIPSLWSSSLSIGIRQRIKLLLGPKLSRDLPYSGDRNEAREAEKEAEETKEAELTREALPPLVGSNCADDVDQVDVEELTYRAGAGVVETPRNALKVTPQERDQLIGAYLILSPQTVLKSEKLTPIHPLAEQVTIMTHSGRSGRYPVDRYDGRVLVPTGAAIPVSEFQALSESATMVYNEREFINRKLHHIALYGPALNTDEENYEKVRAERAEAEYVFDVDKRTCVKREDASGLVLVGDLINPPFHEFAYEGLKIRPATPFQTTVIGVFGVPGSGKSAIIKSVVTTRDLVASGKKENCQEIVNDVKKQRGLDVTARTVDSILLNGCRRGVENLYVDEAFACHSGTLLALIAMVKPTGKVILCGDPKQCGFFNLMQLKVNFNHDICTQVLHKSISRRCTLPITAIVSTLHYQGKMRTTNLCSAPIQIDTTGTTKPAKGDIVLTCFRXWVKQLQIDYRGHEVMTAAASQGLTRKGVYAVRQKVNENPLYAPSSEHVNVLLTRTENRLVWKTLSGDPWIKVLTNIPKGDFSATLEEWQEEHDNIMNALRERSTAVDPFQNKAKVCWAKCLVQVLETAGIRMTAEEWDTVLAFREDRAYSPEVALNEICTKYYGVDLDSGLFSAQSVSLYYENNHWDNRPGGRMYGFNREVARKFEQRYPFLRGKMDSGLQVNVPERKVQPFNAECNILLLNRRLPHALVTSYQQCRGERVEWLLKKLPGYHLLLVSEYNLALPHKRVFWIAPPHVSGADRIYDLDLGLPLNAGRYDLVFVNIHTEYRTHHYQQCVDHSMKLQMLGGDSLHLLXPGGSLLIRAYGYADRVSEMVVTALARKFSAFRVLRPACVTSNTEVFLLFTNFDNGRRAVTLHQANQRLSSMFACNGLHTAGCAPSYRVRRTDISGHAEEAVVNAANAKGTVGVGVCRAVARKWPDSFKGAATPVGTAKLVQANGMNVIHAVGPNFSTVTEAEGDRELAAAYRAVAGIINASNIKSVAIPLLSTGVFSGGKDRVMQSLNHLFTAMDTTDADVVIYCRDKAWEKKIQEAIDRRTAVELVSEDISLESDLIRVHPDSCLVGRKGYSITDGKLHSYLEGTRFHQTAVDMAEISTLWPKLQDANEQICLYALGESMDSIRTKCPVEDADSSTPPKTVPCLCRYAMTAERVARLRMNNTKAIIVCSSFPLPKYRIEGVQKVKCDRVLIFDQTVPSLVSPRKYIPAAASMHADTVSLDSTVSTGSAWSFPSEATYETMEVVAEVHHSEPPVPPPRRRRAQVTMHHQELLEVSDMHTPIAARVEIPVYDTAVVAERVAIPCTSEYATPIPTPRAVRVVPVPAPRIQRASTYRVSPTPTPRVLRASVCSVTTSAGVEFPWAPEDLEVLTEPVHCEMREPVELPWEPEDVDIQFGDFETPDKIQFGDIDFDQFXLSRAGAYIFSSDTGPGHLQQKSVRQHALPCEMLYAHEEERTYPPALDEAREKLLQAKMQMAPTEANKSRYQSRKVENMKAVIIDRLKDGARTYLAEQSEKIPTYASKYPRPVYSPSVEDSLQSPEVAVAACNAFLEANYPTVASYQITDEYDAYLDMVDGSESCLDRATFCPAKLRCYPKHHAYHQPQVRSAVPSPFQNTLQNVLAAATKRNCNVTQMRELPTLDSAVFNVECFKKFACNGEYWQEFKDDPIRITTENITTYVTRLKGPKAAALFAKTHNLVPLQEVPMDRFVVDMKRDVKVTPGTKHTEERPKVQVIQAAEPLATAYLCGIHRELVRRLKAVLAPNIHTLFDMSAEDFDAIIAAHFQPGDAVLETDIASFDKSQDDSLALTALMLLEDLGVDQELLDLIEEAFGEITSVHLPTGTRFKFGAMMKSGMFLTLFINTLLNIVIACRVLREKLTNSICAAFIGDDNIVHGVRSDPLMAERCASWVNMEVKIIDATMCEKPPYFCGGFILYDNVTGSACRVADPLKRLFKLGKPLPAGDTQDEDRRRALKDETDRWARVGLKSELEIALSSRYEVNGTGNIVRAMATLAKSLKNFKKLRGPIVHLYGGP
T4 sequence (P13887 1-533 partner limits assumed): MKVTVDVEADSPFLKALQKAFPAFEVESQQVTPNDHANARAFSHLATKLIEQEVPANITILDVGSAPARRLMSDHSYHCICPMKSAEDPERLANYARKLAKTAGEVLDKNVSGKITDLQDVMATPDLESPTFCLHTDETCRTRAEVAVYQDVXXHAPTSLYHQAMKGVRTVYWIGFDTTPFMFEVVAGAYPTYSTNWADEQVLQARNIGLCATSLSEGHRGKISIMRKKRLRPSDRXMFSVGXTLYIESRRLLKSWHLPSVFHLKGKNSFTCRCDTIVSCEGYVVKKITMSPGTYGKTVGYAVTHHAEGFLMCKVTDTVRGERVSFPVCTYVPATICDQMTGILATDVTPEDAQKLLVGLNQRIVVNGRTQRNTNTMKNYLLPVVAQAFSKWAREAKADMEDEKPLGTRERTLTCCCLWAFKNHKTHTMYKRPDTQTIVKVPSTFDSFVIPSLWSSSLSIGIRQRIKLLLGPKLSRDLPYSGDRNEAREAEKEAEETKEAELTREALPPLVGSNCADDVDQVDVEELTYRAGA
T4 sequence (P13887 534-1331 partner limits assumed): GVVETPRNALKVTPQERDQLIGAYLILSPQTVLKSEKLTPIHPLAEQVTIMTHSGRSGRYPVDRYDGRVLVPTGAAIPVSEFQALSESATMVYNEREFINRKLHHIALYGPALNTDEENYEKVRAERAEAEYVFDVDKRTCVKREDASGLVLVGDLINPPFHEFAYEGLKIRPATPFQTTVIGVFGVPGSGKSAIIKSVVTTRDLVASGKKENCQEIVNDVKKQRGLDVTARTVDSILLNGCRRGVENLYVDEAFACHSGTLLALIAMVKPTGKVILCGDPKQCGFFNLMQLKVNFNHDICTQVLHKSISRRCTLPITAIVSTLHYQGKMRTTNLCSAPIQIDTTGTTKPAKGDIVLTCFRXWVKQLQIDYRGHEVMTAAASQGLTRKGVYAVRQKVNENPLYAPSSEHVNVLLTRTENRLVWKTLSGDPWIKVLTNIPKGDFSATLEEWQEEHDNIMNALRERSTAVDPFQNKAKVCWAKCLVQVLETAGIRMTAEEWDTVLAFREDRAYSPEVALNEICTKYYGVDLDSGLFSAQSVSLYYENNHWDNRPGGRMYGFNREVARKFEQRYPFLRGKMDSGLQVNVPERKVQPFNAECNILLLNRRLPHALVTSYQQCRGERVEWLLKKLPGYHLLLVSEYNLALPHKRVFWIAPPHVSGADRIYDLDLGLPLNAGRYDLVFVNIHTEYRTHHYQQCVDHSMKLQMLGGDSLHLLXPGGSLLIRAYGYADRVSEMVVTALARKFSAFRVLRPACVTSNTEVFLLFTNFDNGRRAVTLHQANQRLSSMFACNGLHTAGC

As for `Cc1ccc2sc(N(CCCN(C)C)C(=O)c3nc4ccccc4s3)nc2c1C` [GAP-1041908], the EC50 with SINV-GLuc (Sindbis virus, Vero C1008) is 18.9 µM; in the data set with CHIKV replicon [2], 32.1 µM; with HPIV3-nLuc (Human respirovirus 3, Vero C1008), 41 µM; in the data set on VSV-nLuc (Vesicular stomatitis virus, Vero C1008, read-out: Antiviral potency (EC50 [µM]) VSV) it was 32.7 µM; in the data set with SARS-CoV-2-nLuc (Severe acute respiratory syndrome coronavirus 2) it was 28 µM; in the data set on VEEV-TC83-nLuc (Venezuelan equine encephalitis virus, Vero C1008, read-out: Antiviral potency (EC50 [µM]) VEEV), 18.8 µM. Moreover, the CC50 stood at 34.9 µM in “in vitro [1]” and 31.4 µM in “in vitro [5]”. Besides, the selectivity ratio in the data set “in vitro [3]” is below 10. In addition, the inhibition at 5 µM in data set [4] (Chikungunya virus, read-out: Normalized percent inhibition in primary screen) was 94.7%.
For the molecule “N-[2-(4-fluorophenyl)ethyl]-1,5-dimethyl-N-[(2-methylpyrazol-3-yl)methyl]pyrazole-4-sulfonamide [GAP-1146924]”, the EC50 in the data set on SINV-GLuc is above 100 µM; in the data set with SFV, above 100 µM; with CHIKV-nLuc [10] it was 9.33 µM; in the data set with CHIKV replicon [13], 9.2 µM; in the data set with HPIV3-nLuc, above 100 µM; with CHIKV-nLuc [15], 23.4 ± 2.44 µM. For the same molecule, the EC50 is above 100 µM with RRV; above 100 µM in the data set on VSV-nLuc (read-out: Antiviral potency (EC50 [µM]) VSV); 16.5 ± 3.99 µM in the data set with CHIKV 181/25 (MOI 0.1, supernatant 24 hpi titered by FFA (Fig. 5), read-out: EC50 virus production, CHIKV); 19.7 ± 7.78 µM in the data set with CHIKV 181/25 (resistance study (Fig. 7), read-out: EC50 virus production, CHIKV WT); 13 ± 5.14 µM in the data set with MAYV; above 100 µM in the data set with SINV. Further, the EC50 with RSV A2-L19F was above 10 µM; in the data set with SARS-CoV-2-nLuc, above 100 µM; with VEEV-TC83-nLuc (read-out: Antiviral potency (EC50 [µM]) VEEV) it was 35.2 µM; in the data set with ONNV, 6.09 ± 2.2 µM. Besides, in [6], the “Effect on RNA replication (GLuc) in trans-replicase assay, SINV” value is “some GAP-1146924 inhibition”. The CC50 with U-2 OS cells [7] is above 100 µM; in the data set with U-2 OS cells [8], above 500 µM; in the data set on NHDF cells, above 500 µM; in the data set on VeroE6 cells, above 100 µM. The “Effect on RNA replication (GLuc) in trans-replicase assay, EEEV” value in data set [9] is “some inhibition”. The “Effect on RNA replication (GLuc) in trans-replicase assay, VEEV” value in [11] is “some inhibition”. For the same molecule, in [12], the “Effect on RNA replication (GLuc) in trans-replicase assay, ONNV” value is recorded as “inhibited RNA replication”. In addition, in the data set on CHIKV-nLuc [14], the “Time-of-addition profile (stage of replication targeted)” value was “act on a stage after viral entry”. Besides, the “Effect on RNA replication (GLuc) in trans-replicase assay, CHIKV” value in data set [16] was “inhibited RNA replication”. Also, the “Normalized percent inhibition in primary screen” value in data set [4] (5 µM) is 91.8%. The “Effect on RNA replication (GLuc) in trans-replicase assay, WEEV” value in [17] is recorded as “some inhibition”. Further, the “Effect on RNA replication (GLuc) in trans-replicase assay, RRV” value in [18] is “some GAP-1146924 inhibition”. Besides, the “Effect on RNA replication (GLuc) in trans-replicase assay, BFV” value in data set [19] is reported as “inhibited RNA replication”. Further, in data set [20], the “Effect on RNA replication (GLuc) in trans-replicase assay, EILV” value was “some inhibition”. Moreover, the “Effect on RNA replication (GLuc) in trans-replicase assay, SFV” value in data set [21] is “some GAP-1146924 inhibition”.
